{
  "source": "patent US20070167440A1",
  "about": "“Novel pyrrolidine compound and a process for preparing the same” (priority 2004, published 2007)",
  "origin": "cited, not measured here",
  "tested_on": "gastric motility",
  "details": "mice; disclosed in JP1993-17434",
  "data": [
    {"smiles": "COc1cc(N)c(Cl)cc1C(=O)NC1CC(CO)N(C(c2ccccc2)c2ccccc2)C1", "note": "(stereo not shown) [4-amino-5-chloro-N-[1-(diphenylmethyl)-5-(hydroxymethyl)-3-pyrrolidinyl]-2-methoxy-benzamide]", "values": [
      {"measurement": "gastric motility", "result": "increased gastric motility"}
    ]}
  ]
}
